The nature of series [1]: Product stability by visual assessment of color and homogeneity after storage. Format: physicochemical. Particulars: for Color Stability of ER / Color Stability / Homogeneity: 2.5% ER; for Color Stability / Homogeneity: 3 months at ~25° C., visual. The protocol: Stability of product is evaluated after a storage period of 3 months at ˜25° C. by visual measurement to assess color and homogeneity of product.

Series [2] has as its system skin colour of human panelists' face. Briefly: Efficacy on skin-lightening, half-face cleanser use versus placebo cleanser. The class given is in vivo. An excerpt: Thirty three human panelists are recruited who are required to use a known amount of the cleansing product on one half of their face. At the same time, the other half was rinsed with a placebo cleanser. Panelists were required to do this for eight weeks. The color of the skin is monitored at regular intervals by trained visual graders and instruments. A final assessment is made at eight weeks. The value for skin-lightening indicated is in comparison to the placebo effect.

Another series relates to human skin. In words: Skin delivery of resorcinol from product applied to human volunteer forearms. Conditions: for Skin Delivery of ER: 2.5% ER, pH 6.5, percentage of initial dose after rinse. Format: in vivo. The protocol: Delivery of resorcinol on human skin was assessed through direct application of product to human volunteer forearms. A known dose of the product was applied to the area, and the product was rubbed into the area. The area on the arm was rinsed with a fixed amount of water. The collected rinse liquor was analyzed for resorcinol, and the amount delivered to skin was calculated by subtracting from the dosage applied. This is expressed as a percentage of the initial dose.

Where [3] appears, read: liquid cleanser with 7% neutralised fatty acid (C18/C14/C12 mix), pH 9.2.
Where [4] appears, read: liquid cleanser with 7% sodium lauryl sulphate, pH 6.5.

For the compound `CCc1ccc(O)cc1O` [4 ethyl resorcinol], the “Color Stability of ER” value in series [1] (cleanser with SLES (3EO) 4.5%, coca amido propyl betaine 1.47%, decyl polyglucoside (HLB 13-15) 1.5%, pH 6.5) was “Good”; in series [1] (cleanser with SLES (3EO) 6.8%, coca amido propyl betaine 2.2%, pH 6.5) it was “Good”. For the same compound, the “Color Stability” value in series [1] (setting [3]) was “Dark brown”; in series [1] (setting [4]) it was “Good”. In addition, the results for the Homogeneity result in series [1] (setting [3]) and in series [1] (setting [4]) were “Small precipitate” and “Good”, respectively. The “stability of 4 ethyl resorcinol in the formulation” value in series [1] (pH of the formulation below 7.5) is listed as “good”. Further, the Efficacy on skin-lightening in series [2] (cleanser with SLES (3EO) 6.8%, coca amido propyl betaine 2.2%, 2.5% ER, pH 6.5, eight weeks, in comparison to placebo effect) is −0.7. Further, in series [2] (through a cleansing system with anionic and amphoteric surfactant), the “skin colour (lightening)” value is given as “significantly improves skin colour”. Besides, the “delivery of 4 ethyl resorcinol from the formulation on the skin” value in the series on human skin (anionic and amphoteric surfactant, or in combination with a nonionic surfactant) is listed as “significant delivery”. In addition, the “Skin Delivery of ER” value with human skin (cleanser with SLES (3EO) 4.5%, coca amido propyl betaine 1.47%, decyl polyglucoside 1.5%) was 12.4%; with human skin (cleanser with SLES (3EO) 6.8%, coca amido propyl betaine 2.2%) it was 7.7%.
